Assay [1] concerns the target T1, serotonin 5-HT1A receptor (Rattus norvegicus, UniProt P19327).
T1 construct: following the procedure of Hall et al., J. Neurochem; 44, 1685 (1985); from tissue
T1 sequence (P19327 1-422): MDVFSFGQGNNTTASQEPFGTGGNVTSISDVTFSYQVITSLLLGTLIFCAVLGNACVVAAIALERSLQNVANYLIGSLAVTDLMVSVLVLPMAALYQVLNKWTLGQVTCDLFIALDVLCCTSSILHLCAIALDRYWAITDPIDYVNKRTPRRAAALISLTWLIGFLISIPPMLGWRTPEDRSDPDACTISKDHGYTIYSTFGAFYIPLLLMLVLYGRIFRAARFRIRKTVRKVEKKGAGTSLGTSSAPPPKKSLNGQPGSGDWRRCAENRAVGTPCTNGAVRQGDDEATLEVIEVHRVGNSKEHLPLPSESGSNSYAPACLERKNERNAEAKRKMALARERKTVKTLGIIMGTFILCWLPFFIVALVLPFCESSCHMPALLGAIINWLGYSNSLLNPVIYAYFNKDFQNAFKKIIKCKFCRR
To be noted: standard for anxiolytic activity; cited from earlier work.

A further assay has as its target T2, dopamine D-2 receptor (Rattus norvegicus, UniProt P61169).
T2 construct: from tissue; host or cells: limbic brain tissue, homogenized
Description: dopamine D-2 receptor binding (displacement of 3H-spiroperidol, homogenized limbic brain tissue). As to the method:
High affinity for the dopamine D-2 receptor was established by the standard experimental test procedure of Fields, et al., Brain Res., 136, 578-584 (1977) and Yamamura et al., eds., Neurotransmitter Receptor Binding, Raven Press, N.Y. (1978) wherein homogenized limbic brain tissue is incubated with ^3 H-spiroperiodol and various concentrations of test compound, filtered and washed and shaken with Hydrofluor scintillation cocktail (National Diagnostics) and counted in a Packard 460 CD scintillation counter.

Assay [2] deals with T1, serotonin 5-HT1A receptor. The assay is described as follows: serotonin 5-HT1A receptor binding (displacement of [3H]8-OHDPAT). From the text: High affinity for the serotonin 5-HT1A receptor was established by testing the claimed compound's ability to displace [^3 H]8-OHDPAT (dipropylaminotetralin) from the 5-HT1A serotonin receptor following the procedure of Hall et al., J. Neurochem. 44, 1685 (1985). […] The anxiolytic activity of buspirone is believed to be, at least partially, due to its 5-HT1A receptor affinity (Vander Maelen et al., Eur. J. Pharmacol., 129 (1-2) 123-130 (1986).
In general terms: Displacement assays read how much labelled ligand stays bound in the presence of the test substance.

Assay [3] can be described thus: conditioned avoidance, shelf-jump response test. In kind it is in vivo, rat (male CD). The note with it: Rattus norvegicus, no CI, read-out: Avoidance Block AB50, Shelf-jump. From the text:
(§1) The antipsychotic properties of the compound of Example 5 were further established by standard pharmacologically accepted procedures involving conditioned avoidance studies in which trained male CD rats (Charles River), 400-500 g. body weight are exposed to a fifteen second warning tone (conditioned stimulus) continued for an additional fifteen seconds accompanied by electric shock. The rat can avoid the electric shock by jumping to an exposed shelf (shelf-jump response). A response during the initial warning tone is considered an avoidance response, while a response during shock delivery is considered an escape response. The shelf-jump response test procedure follows that of Herman et. al., Comm. in Psychopharm., 3, pp. 165-171 (1979). A similar test procedure (Discrete Trial) in which a lever press was substituted for a shelf-jump was also used to establish the activity of the compound of Example 5. The compound was tested over a full dose range and the Avoidance Block activities reported as "AB50 's (mg/kg): Shelf-jump: 6.43 (no CI) i.p., 58.28 (no CI) p.o.; Discrete Trial: 4.80 (2.14-17.66) i.p., 35.35 (no CI) p.o.

The nature of assay [4]: conditioned avoidance, Discrete Trial (lever press). It counts as in vivo, rat (male CD). The note with it: Rattus norvegicus, read-out: Avoidance Block AB50, Discrete Trial.
Text: as §1

One may read the Ki as a measure of affinity in units of concentration, obtained from inhibition or displacement. Read a low Ki as higher affinity. Usually inhibition stands for how much of the control response was suppressed. Read a high inhibition as a response far below the control.

T2 sequence (P61169 whole entry): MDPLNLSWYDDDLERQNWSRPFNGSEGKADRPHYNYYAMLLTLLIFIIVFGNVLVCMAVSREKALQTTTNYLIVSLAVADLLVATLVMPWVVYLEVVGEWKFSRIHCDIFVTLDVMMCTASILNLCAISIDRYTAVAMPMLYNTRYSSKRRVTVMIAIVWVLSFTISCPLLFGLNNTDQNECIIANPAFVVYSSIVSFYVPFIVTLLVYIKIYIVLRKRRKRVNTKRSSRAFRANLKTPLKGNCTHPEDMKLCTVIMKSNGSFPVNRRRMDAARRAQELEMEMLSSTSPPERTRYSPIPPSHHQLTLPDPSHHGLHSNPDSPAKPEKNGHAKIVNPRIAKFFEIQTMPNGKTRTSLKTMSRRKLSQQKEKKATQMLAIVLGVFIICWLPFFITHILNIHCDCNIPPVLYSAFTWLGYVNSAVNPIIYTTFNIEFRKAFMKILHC

`O=C1CC2(CCCC2)CC(=O)N1CCCCN1CCN(c2ncccn2)CC1` [buspirone]: in assay [1], the “affinity for the 5-HT1A serotonin receptor subtype (in words)” value is reported as “high affinity”.
Take `O=C1C2CC(C(=O)N1CCCCN1CCN(c3nsc4ccccc34)CC1)C1C2C2C3CC4C2C4C31` (stereo not shown) [Example 5, Decahydro-3-[4-[4-(1,2-benzisothiazol-3-yl)-1-piperazinyl]butyl]-1,5-methano-6,7,9-metheno-2H-pentaleno[1,2-d]azepine-2,4(3H)-dione]: the inhibition constant (Ki) on dopamine D-2 receptor was 500 pM; in assay [2], 65 pM. For the same molecule, the results for the inhibition at 1 µM (on dopamine D-2 receptor; in assay [2]) were 95% and 96%, respectively. Further, the ED50 in assay [3] (ip) worked out at 6.43 mg/kg; in assay [3] (po), 58.3 mg/kg; in assay [4] (ip, CI in parentheses), 4.8 mg/kg; in assay [4] (po, no CI), 35.4 mg/kg.
With `O=C1C2C(C(=O)N1CCCCN1CCN(c3nsc4ccccc34)CC1)C1C3CC4C(C32)C41` (stereo not drawn) [Example 6, (Exo)-octahydro-2-[4-[4-(1,2-benzisothiazol-3-yl)-1-piperazinyl]butyl]-4,5,7-metheno-1H-pentaleno[1,2-c]pyrrole-1,3(1H)-dione], the inhibition at 1 µM (at dopamine D-2 receptor; in assay [2]) was 100% throughout.
For the molecule `O=C1C2C(C(=O)N1CCCCN1CCN(c3nsc4ccccc34)CC1)C1C3CC4C(C32)C41` (stereo not drawn) [Example 7, (Endo)-octahydro-2-[4-[4-(1,2-benzisothiazol-3-yl)-1-piperazinyl]butyl]-4,5,7-metheno-1H-pentaleno[1,2-c]pyrrole-1,3(2H)-dione], the “D-2 Binding (Inhibition at 1 μM)” value at dopamine D-2 receptor (at 1 μM) is on record as 100%. Further, in assay [2], the affinity, expressed as Ki, was 400 pM. Further, the “5-HT1A Binding (Inhibition at 1 μM)” value in assay [2] (at 1 μM) is 100%.
As to `O=C1C2C3C=CC(C4CC34)C2C(=O)N1CCCCN1CCN(c2nsc3ccccc23)CC1` (stereo not shown) [Example 3, 2-[4-[4-(1,2-Benzisothiazol-3-yl)-1-piperazinyl]butyl]-4,4a,5,5a,6,6a-hexahydro-4,6-ethenocycloprop[f]isoindole-1,3(2H,3aH)-dione], the inhibition at 1 µM on dopamine D-2 receptor was found to be 99%; in assay [2], 100%.
For the molecule `O=C1C2C3C=CC(C4C=CC43)C2C(=O)N1CCCCN1CCN(c2nsc3ccccc23)CC1` (stereo not shown) [Example 4, 2-[4-[4-(1,2-Benzisothiazol-3-yl)-1-piperazinyl]butyl]3a,4,4a,6a,7,7a-hexahydro-4,7-etheno-1H-cyclobut[f]isoindole-1,3(2H)-dione], on dopamine D-2 receptor, 1 µM produced 95% inhibition. In assay [2], the Ki came out at 650 pM and the inhibition at 1 µM is 97%.

The values above are taken from US4968792A, “Psychotropic benzisothiazole derivatives” (American Home Products Corporation, priority 1989, dated 1990).
